pKi: −log10 of the molar value.
These compounds were tested against T1, Alpha-1D adrenergic receptor (Homo sapiens, UniProt P25100) (assay: Displacement of [125I]HEAT from human Alpha-1D adrenergic receptor expressed in HEK cells). Conditions: not given.
T1 sequence (P25100 whole entry): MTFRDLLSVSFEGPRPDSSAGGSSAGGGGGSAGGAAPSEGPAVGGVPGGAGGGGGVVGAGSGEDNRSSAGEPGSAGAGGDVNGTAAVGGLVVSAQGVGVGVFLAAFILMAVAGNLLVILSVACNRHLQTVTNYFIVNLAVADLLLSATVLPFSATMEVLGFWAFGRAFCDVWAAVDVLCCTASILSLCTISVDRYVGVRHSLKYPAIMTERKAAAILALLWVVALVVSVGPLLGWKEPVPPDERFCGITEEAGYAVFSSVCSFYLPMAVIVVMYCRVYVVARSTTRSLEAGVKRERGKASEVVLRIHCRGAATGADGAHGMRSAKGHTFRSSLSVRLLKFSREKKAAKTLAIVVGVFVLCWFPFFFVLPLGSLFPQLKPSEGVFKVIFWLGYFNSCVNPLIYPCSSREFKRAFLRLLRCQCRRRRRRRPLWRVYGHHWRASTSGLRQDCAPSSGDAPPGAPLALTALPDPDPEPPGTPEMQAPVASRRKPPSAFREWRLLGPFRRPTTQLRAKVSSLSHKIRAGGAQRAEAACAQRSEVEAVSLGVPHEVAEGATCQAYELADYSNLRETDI
Type: cell-based, HEK293
`C1=CC2(CCN(CCc3cccc4ccccc34)CC2)Oc2ccccc21` gave a pKi of 6.70.
In the case of `Cc1noc(C)c1S(=O)(=O)Nc1ccc2c(c1)C(=O)CC1(CCN(CCc3cccc4ccccc34)CC1)O2`, the pKi was 7.74.
`O=C1OC2(CCN(CCc3cccc4ccccc34)CC2)Cc2ccccc21` showed a pKi of 7.22.
In the case of `O=C1c2ccccc2CC12CCN(CCc1cccc3ccccc13)CC2`, the pKi was 6.83.
`Cc1[nH]c2ccccc2c1CCN1CCC2(CC1)CC(=O)c1ccc(NS(C)(=O)=O)cc1O2` was tested, and the pKi was 6.94.
`Cn1cnc(S(=O)(=O)Nc2ccc3c(c2)C(=O)CC2(CCN(CCc4cccc5ccccc45)CC2)O3)c1` was tested, and the pKi was 7.62.
`O=C1CC2(CCN(CCc3cccc4ccccc34)CC2)Oc2ccc(NS(=O)(=O)Cc3ccccc3)cc21` showed a pKi of 7.28.
Work on `CS(=O)(=O)Nc1ccc2c(c1)OC1(CCN(CCc3cccc4ccccc34)CC1)CC2=O` yielded a pKi of 6.87.
`COc1ccccc1CCN1CCC2(CC1)CC(=O)c1ccc(NS(C)(=O)=O)cc1O2` showed a pKi of 7.03.
`c1ccc2c(c1)CCC1(CCN(CCc3cccc4ccccc34)CC1)O2` was tested, and the pKi was 7.00.
`O=C1CC2(CCN(CCc3cccc4ccccc34)CC2)Oc2ccccc21` gave a pKi of 7.17.
Work on `CS(=O)(=O)Nc1ccc2c(c1)OC1(CCN(CCc3ccccn3)CC1)CC2=O` yielded a pKi of 5.49.
Compound `O=C1CC2(CCN(CCc3ccccn3)CC2)Oc2ccccc21` has a pKi of 5.82.
`CS(=O)(=O)Nc1ccc2c(c1)C(=O)CC1(CCN(CCc3ccccn3)CC1)O2` showed a pKi of 5.42.

Species on record: Mustela putorius furo
Assay: In vitro concentration required to increase the effective refractory period (ERP) above baseline was evaluated using isolated ferret papillary muscle preparations
Type: functional
Conditions: Muscle tissue
With `Cc1noc(C)c1S(=O)(=O)Nc1ccc2c(c1)C(=O)CC1(CCN(CCc3cccc4ccccc34)CC1)O2` the EC25 was over 30000 nM.
Work on `Cc1[nH]c2ccccc2c1CCN1CCC2(CC1)CC(=O)c1ccc(NS(C)(=O)=O)cc1O2` yielded an EC25 of over 30000 nM.
`Cn1cnc(S(=O)(=O)Nc2ccc3c(c2)C(=O)CC2(CCN(CCc4cccc5ccccc45)CC2)O3)c1` showed an EC25 of over 30000 nM.
Work on `O=C1CC2(CCN(CCc3cccc4ccccc34)CC2)Oc2ccc(NS(=O)(=O)Cc3ccccc3)cc21` yielded an EC25 of over 30000 nM.
Compound `CS(=O)(=O)Nc1ccc2c(c1)OC1(CCN(CCc3cccc4ccccc34)CC1)CC2=O` has an EC25 of 9000 nM.
Compound `COc1ccccc1CCN1CCC2(CC1)CC(=O)c1ccc(NS(C)(=O)=O)cc1O2` has an EC25 of 3800 nM.
Compound `CS(=O)(=O)Nc1ccc2c(c1)OC1(CCN(CCc3ccccn3)CC1)CC2=O` has an EC25 of 6600 nM.
`O=C1CC2(CCN(CCc3ccccn3)CC2)Oc2ccccc21` was tested, and the EC25 was 160 nM.
Work on `CS(=O)(=O)Nc1ccc2c(c1)C(=O)CC1(CCN(CCc3ccccn3)CC1)O2` yielded an EC25 of 33 nM.

These compounds were tested against T2, Alpha-1A adrenergic receptor (Rattus norvegicus, UniProt P43140) (assay: Binding affinity against Alpha-1A adrenergic receptor in rat prostatic tissue). Conditions: not given.
T2 sequence (P43140 whole entry): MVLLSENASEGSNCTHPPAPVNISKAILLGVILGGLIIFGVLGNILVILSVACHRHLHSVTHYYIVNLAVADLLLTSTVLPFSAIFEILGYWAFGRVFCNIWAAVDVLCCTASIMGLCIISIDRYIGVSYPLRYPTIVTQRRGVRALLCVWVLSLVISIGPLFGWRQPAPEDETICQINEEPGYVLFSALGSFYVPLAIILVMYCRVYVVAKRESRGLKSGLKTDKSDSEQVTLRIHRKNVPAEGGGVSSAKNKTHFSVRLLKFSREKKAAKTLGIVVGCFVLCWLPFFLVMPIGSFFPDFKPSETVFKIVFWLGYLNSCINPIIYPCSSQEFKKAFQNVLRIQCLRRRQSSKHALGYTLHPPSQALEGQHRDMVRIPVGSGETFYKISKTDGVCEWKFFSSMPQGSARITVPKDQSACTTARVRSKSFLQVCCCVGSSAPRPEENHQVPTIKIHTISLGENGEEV
In the case of `Cc1noc(C)c1S(=O)(=O)Nc1ccc2c(c1)C(=O)CC1(CCN(CCc3cccc4ccccc34)CC1)O2`, the pKi was 8.00.

These compounds were tested against T3, Alpha-1A adrenergic receptor (Homo sapiens, UniProt P35348) (assay: Binding affinity against Alpha-1A adrenergic receptor in human prostatic tissue). Conditions: not given.
T3 sequence (P35348 whole entry): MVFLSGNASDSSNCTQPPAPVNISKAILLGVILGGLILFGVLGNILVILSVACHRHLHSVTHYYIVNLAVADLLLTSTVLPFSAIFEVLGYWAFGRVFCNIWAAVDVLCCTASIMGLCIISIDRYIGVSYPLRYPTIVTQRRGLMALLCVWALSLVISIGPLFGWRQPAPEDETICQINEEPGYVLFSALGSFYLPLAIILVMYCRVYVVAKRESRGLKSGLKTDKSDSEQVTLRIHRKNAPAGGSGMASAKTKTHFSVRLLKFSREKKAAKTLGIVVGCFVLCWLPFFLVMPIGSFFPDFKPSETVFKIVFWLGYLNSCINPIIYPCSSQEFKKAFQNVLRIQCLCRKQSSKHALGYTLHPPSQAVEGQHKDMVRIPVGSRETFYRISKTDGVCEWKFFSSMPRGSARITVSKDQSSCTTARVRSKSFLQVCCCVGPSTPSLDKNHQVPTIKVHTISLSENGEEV
In the case of `Cc1noc(C)c1S(=O)(=O)Nc1ccc2c(c1)C(=O)CC1(CCN(CCc3cccc4ccccc34)CC1)O2`, the pKi was 8.00.

What follows are compounds tested against T4, Alpha-1B adrenergic receptor (Homo sapiens, UniProt P35368) (assay: Displacement of [125I]HEAT from human Alpha-1B adrenergic receptor expressed in LM cells). Conditions: not given.
T4 sequence (P35368 whole entry): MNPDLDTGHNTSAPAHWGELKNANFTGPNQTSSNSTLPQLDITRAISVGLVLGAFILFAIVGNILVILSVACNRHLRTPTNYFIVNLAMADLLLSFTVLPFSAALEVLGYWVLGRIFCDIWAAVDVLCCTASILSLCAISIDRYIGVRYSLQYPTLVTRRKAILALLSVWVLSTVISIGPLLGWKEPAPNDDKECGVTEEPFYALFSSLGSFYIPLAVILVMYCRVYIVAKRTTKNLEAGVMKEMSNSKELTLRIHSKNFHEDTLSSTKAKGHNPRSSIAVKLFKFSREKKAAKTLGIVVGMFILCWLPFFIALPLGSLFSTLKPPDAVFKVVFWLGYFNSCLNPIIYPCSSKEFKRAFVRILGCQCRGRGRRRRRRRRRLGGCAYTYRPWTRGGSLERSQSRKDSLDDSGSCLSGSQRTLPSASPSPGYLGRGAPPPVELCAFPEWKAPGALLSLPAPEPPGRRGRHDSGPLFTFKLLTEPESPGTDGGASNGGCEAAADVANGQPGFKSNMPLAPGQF
Type: cell-based
`C1=CC2(CCN(CCc3cccc4ccccc34)CC2)Oc2ccccc21` gave a pKi of 7.28.
`Cc1noc(C)c1S(=O)(=O)Nc1ccc2c(c1)C(=O)CC1(CCN(CCc3cccc4ccccc34)CC1)O2` was tested, and the pKi was 7.62.
`O=C1OC2(CCN(CCc3cccc4ccccc34)CC2)Cc2ccccc21` gave a pKi of 6.86.
`O=C1c2ccccc2CC12CCN(CCc1cccc3ccccc13)CC2` gave a pKi of 7.31.
In the case of `Cc1[nH]c2ccccc2c1CCN1CCC2(CC1)CC(=O)c1ccc(NS(C)(=O)=O)cc1O2`, the pKi was 6.66.
`Cn1cnc(S(=O)(=O)Nc2ccc3c(c2)C(=O)CC2(CCN(CCc4cccc5ccccc45)CC2)O3)c1` was tested, and the pKi was 7.28.
`O=C1CC2(CCN(CCc3cccc4ccccc34)CC2)Oc2ccc(NS(=O)(=O)Cc3ccccc3)cc21` gave a pKi of 7.62.
`CS(=O)(=O)Nc1ccc2c(c1)OC1(CCN(CCc3cccc4ccccc34)CC1)CC2=O` showed a pKi of 6.83.
`COc1ccccc1CCN1CCC2(CC1)CC(=O)c1ccc(NS(C)(=O)=O)cc1O2` showed a pKi of 6.76.
In the case of `c1ccc2c(c1)CCC1(CCN(CCc3cccc4ccccc34)CC1)O2`, the pKi was 7.26.
Compound `O=C1CC2(CCN(CCc3cccc4ccccc34)CC2)Oc2ccccc21` has a pKi of 7.32.
In the case of `CS(=O)(=O)Nc1ccc2c(c1)OC1(CCN(CCc3ccccn3)CC1)CC2=O`, the pKi was under 5.70.
Work on `O=C1CC2(CCN(CCc3ccccn3)CC2)Oc2ccccc21` yielded a pKi of 5.89.
`CS(=O)(=O)Nc1ccc2c(c1)C(=O)CC1(CCN(CCc3ccccn3)CC1)O2` gave a pKi of under 5.70.

These compounds were tested against T3, Alpha-1A adrenergic receptor (assay: Displacement of [125I]HEAT from human Alpha-1C adrenergic receptor expressed in CHO cells). Conditions: not given.
Type: cell-based
`C1=CC2(CCN(CCc3cccc4ccccc34)CC2)Oc2ccccc21` gave a pKi of 7.15.
`O=C1OC2(CCN(CCc3cccc4ccccc34)CC2)Cc2ccccc21` was tested, and the pKi was 7.35.
With `O=C1c2ccccc2CC12CCN(CCc1cccc3ccccc13)CC2` the pKi was 7.51.
Compound `Cc1[nH]c2ccccc2c1CCN1CCC2(CC1)CC(=O)c1ccc(NS(C)(=O)=O)cc1O2` has a pKi of 8.10.
`Cn1cnc(S(=O)(=O)Nc2ccc3c(c2)C(=O)CC2(CCN(CCc4cccc5ccccc45)CC2)O3)c1` gave a pKi of 8.10.
Compound `O=C1CC2(CCN(CCc3cccc4ccccc34)CC2)Oc2ccc(NS(=O)(=O)Cc3ccccc3)cc21` has a pKi of 7.89.
`CS(=O)(=O)Nc1ccc2c(c1)OC1(CCN(CCc3cccc4ccccc34)CC1)CC2=O` gave a pKi of 7.70.
Compound `COc1ccccc1CCN1CCC2(CC1)CC(=O)c1ccc(NS(C)(=O)=O)cc1O2` has a pKi of 8.19.
Compound `c1ccc2c(c1)CCC1(CCN(CCc3cccc4ccccc34)CC1)O2` has a pKi of 7.25.
`O=C1CC2(CCN(CCc3cccc4ccccc34)CC2)Oc2ccccc21` showed a pKi of 7.28.
`CS(=O)(=O)Nc1ccc2c(c1)OC1(CCN(CCc3ccccn3)CC1)CC2=O` showed a pKi of 5.78.
In the case of `O=C1CC2(CCN(CCc3ccccn3)CC2)Oc2ccccc21`, the pKi was 6.10.
With `CS(=O)(=O)Nc1ccc2c(c1)C(=O)CC1(CCN(CCc3ccccn3)CC1)O2` the pKi was under 5.70.

Each compound was assayed against T3, Alpha-1A adrenergic receptor (assay: Ability to displace [125I]HEAT from cloned human Alpha-1A adrenergic receptor stably expressed in CHO cells). Conditions: not given.
Type: cell-based
Compound `Cc1noc(C)c1S(=O)(=O)Nc1ccc2c(c1)C(=O)CC1(CCN(CCc3cccc4ccccc34)CC1)O2` has a pKi of 9.16.

— ChEMBL document CHEMBL1132031, “4-Oxospiro[benzopyran-2,4'-piperidines] as selective alpha 1a-adrenergic receptor antagonists” (Bioorg Med Chem Lett, 1999)
